Assay results from patent US20210181109A1 (FUJIFILM Corporation, priority 2018, published 2021).
Like-named read-outs stand apart in the source and are kept apart here.

Key:
[1] = NAC depletion percent, HPLC-fluorescence detection
Outline: (§1)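 NAC at 5 μmol/L in pH 8.0 phosphate buffer reacted with test substance (1 mmol/L stock in water, acetonitrile, acetone or 5% DMSO/acetonitrile) 24 h at 25 °C in the dark, n=3. Stopped with TFA (0.5% final); unreacted NAC quantified by HPLC, depletion percent calculated against blank without test substance.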

[2] = NAL depletion percent, HPLC-fluorescence detection
Outline: (§2)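 NAL (5 μmol/L, pH 10.2 phosphate buffer) reacted with test substance (1 mmol/L stock in water, acetonitrile, acetone or 5% DMSO/acetonitrile) for 24 h at 25 °C in the dark; stopped with TFA to 0.5%. Unreacted NAL quantified by HPLC (UV or fluorescence), n=3; depletion % relative to substance-free blank.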

[3] = Average score of NAC and NAL depletion and prediction of skin allergenicity, fluorescence method; details: for Average score: test substance solution 1 mmol/L
Outline: (§3)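 Score is the mean of NAC and NAL depletion percentages, rounded at the second decimal place. Test substances classed as allergenic (S) or non-allergenic (NS) from depletion of NAC, NAL, or their average score.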

[4] = NAC depletion percent, HPLC-UV detection (281 nm); details: Reference (UV method)
Outline: as §1

[5] = NAL depletion percent, HPLC-UV detection (281 nm); details: Reference (UV method)
Outline: as §2

[6] = Average score of NAC and NAL depletion and prediction of skin allergenicity, UV method; details: for Average score: test substance solution 1 mmol/L
Outline: as §3

[7] = cited from earlier work
[8] = single substance, test substance solution 1 mmol/L, fluorescence method
[9] = single substance, fluorescence method, criterion average score […]
[10] = single substance, fluorescence method
[11] = single substance, test substance solution 1 mmol/L
[12] = single substance, Reference (UV method), criterion average score […]
[13] = single substance, Reference (UV method)
[14] = known values, LLNA-test-based classification, − for non-allergenic substances
[15] = Fluorescence method, non-allergenic substance

| Structure (SMILES) | NAC depletion (%) [1, 8] | NAL depletion (%) [2, 8] | Prediction result [3, 9] | Average score [3, 10] | NAC depletion (%) [4, 11] | NAL depletion (%) [5, 11] | Prediction result [6, 12] | Average score [6, 13] | EC3 (%) [7, 14] | NAC depletion (%) [1, 15] | NAL depletion (%) [2, 15] | Prediction result [3] | NAC depletion (%) ([4]; non-allergenic substance) | NAL depletion (%) ([5]; non-allergenic substance) | Prediction result [6] | EC3 (%) ([7]; in vivo) |
| --- | --- | --- | --- | --- | --- | --- | --- | --- | --- | --- | --- | --- | --- | --- | --- | --- |
| Cn1sc(Cl)cc1=O [5-Chloro-methyl-4-isothiazolin-3-one] | 100.0% | 9.3% | S (S represents as being an allergenic substance) | 54.7% | 100.0% | 17.7% | S (S represents as being an allergenic substance) | 58.8% | 0.009% |  |  |  |  |  |  |  |
| NC1=CC(=Nc2ccc(N)cc2)C(N)=CC1=Nc1ccc(N)cc1 [Bandrowski's base] | 100.0% | 1.7% | S (S represents as being an allergenic substance) | 50.8% | 100.0% | 5.7% | S (S represents as being an allergenic substance) | 52.9% | 0.008% |  |  |  |  |  |  |  |
| c1ccc(COOCc2ccccc2)cc1 [Benzyl peroxide] | 100.0% | 63.7% | S (S represents as being an allergenic substance) | 81.9% | 100.0% | 50.6% | S (S represents as being an allergenic substance) | 75.3% | 0.004% |  |  |  |  |  |  |  |
| ClC(Cl)c1ccccc1 [Benzylidene dichloride] |  |  |  |  |  |  |  |  |  | 2.1% | 1.4% | NS (key: S represents as being an allergenic substance; NS represents as being a non-allergenic substance) | 0.9% | −0.3% | NS (key: S represents as being an allergenic substance; NS represents as being a non-allergenic substance) | − |
| CC(=O)C=Cc1ccccc1 [Benzylideneacetone] | 67.3% | 10.0% | S (S represents as being an allergenic substance) | 38.6% | 44.9% | 7.2% | S (S represents as being an allergenic substance) | 26.1% | 3.7% |  |  |  |  |  |  |  |
| CCN(CCNS(C)(=O)=O)c1ccc(N)c(C)c1.CCN(CCNS(C)(=O)=O)c1ccc(N)c(C)c1.O=S(=O)(O)O.O=S(=O)(O)O.O=S(=O)(O)O [CD3] | 100.0% | 8.1% | S (S represents as being an allergenic substance) | 54.0% | 76.6% | 16.5% | S (S represents as being an allergenic substance) | 46.6% | 0.6% |  |  |  |  |  |  |  |
| Clc1ccccc1 [Chlorobenzene] |  |  |  |  |  |  |  |  |  | 1.3% | 0.1% | NS (key: S represents as being an allergenic substance; NS represents as being a non-allergenic substance) | 0.0% | 0.7% | NS (key: S represents as being an allergenic substance; NS represents as being a non-allergenic substance) | − |
| O=CC=Cc1ccccc1 [Cinnamaldehyde] | 54.1% | 12.8% |  | 33.4% | 37.0% | 13.1% |  | 25.0% |  |  |  |  |  |  |  | 3% |
| CC(C=O)Cc1ccc(C(C)C)cc1 (stereo not drawn) [Cyclamen aldehyde] | 12.2% | 0.0% | S (S represents as being an allergenic substance) | 6.1% | 3.1% | 1.7% | NS (NS represents as being a non-allergenic substance) | 2.4% | 22% |  |  |  |  |  |  |  |
